Tests used:
[1] = 298.15 K; 101.33 kPa; Liquid
[2] = xn = mol fraction of the nth substance listed; conditions: 298.15 K, 101 kPa, Liquid

CCCO [propan-1-ol]
Conditions | mass density [kg/m3]
[1] | 799.52

CN1CCOCC1 [N-methylmorpholine] + CCCCCO
[2]
Conditions | mass density [kg/m3]
x1 = 0.0487 | 813.72
x1 = 0.1129 | 820.02
x1 = 0.1766 | 826.08
x1 = 0.2412 | 832.41
x1 = 0.2801 | 836.23
x1 = 0.3998 | 847.87
x1 = 0.4612 | 854.03
x1 = 0.5826 | 866.38
x1 = 0.6444 | 872.93
x1 = 0.7267 | 881.91
x1 = 0.7801 | 887.89
x1 = 0.8226 | 892.69
x1 = 0.8811 | 899.57
x1 = 0.9428 | 907.1
x1 = 0.9854 | 912.11

CCCCCCCCO [octan-1-ol]
Conditions | mass density [kg/m3]
[1] | 821.65

CN1CCOCC1 [N-methylmorpholine] + CCCO
[2]
Conditions | mass density [kg/m3]
x1 = 0.0237 | 803.87
x1 = 0.1003 | 816.55
x1 = 0.1657 | 826.67
x1 = 0.2336 | 836.52
x1 = 0.2812 | 843.01
x1 = 0.3458 | 851.12
x1 = 0.3988 | 857.14
x1 = 0.4476 | 861.99
x1 = 0.5784 | 874.68
x1 = 0.6347 | 879.93
x1 = 0.7195 | 888.06
x1 = 0.7684 | 892.76
x1 = 0.8327 | 898.56
x1 = 0.8674 | 901.93
x1 = 0.9443 | 908.83
x1 = 0.9878 | 912.75

CN1CCOCC1 [N-methylmorpholine] + CCCCO
[2]
Conditions | mass density [kg/m3]
x1 = 0.0455 | 811.49
x1 = 0.1089 | 818.95
x1 = 0.1675 | 825.55
x1 = 0.2399 | 833.8
x1 = 0.2811 | 838.33
x1 = 0.3494 | 845.7
x1 = 0.3985 | 850.99
x1 = 0.4533 | 856.71
x1 = 0.5285 | 864.54
x1 = 0.6444 | 876.67
x1 = 0.7198 | 885.45
x1 = 0.7865 | 891.47
x1 = 0.8237 | 895.31
x1 = 0.8843 | 901.73
x1 = 0.9411 | 907.87
x1 = 0.9801 | 912

CN1CCOCC1 [N-methylmorpholine] + CCCCCCCCO
[2]
Conditions | mass density [kg/m3]
x1 = 0.0461 | 823.88
x1 = 0.1101 | 827.55
x1 = 0.1862 | 832.09
x1 = 0.2381 | 835.33
x1 = 0.2848 | 838.58
x1 = 0.3484 | 843.06
x1 = 0.4029 | 846.99
x1 = 0.4899 | 853.86
x1 = 0.5121 | 855.92
x1 = 0.6012 | 863.81
x1 = 0.6547 | 869.5
x1 = 0.7213 | 875.97
x1 = 0.7831 | 883.26
x1 = 0.8353 | 889.72
x1 = 0.8958 | 897.82
x1 = 0.9541 | 905.92
x1 = 0.9792 | 909.72

CN1CCOCC1 [N-methylmorpholine]
Conditions | mass density [kg/m3]
[1] | 914.06

CCCCO [butan-1-ol]
Conditions | mass density [kg/m3]
[1] | 805.92

CCCCCO [pentan-1-ol]
Conditions | mass density [kg/m3]
[1] | 810.83

CCO [ethanol]
Conditions | mass density [kg/m3]
[1] | 784.94

CCCCCCO [hexan-1-ol]
Conditions | mass density [kg/m3]
[1] | 814.95

CN1CCOCC1 [N-methylmorpholine] + CCCCCCO
[2]
Conditions | mass density [kg/m3]
x1 = 0.0459 | 818.34
x1 = 0.1098 | 823.37
x1 = 0.1852 | 829.49
x1 = 0.2377 | 833.69
x1 = 0.2855 | 837.76
x1 = 0.3495 | 843.34
x1 = 0.4034 | 848.09
x1 = 0.4887 | 855.97
x1 = 0.5129 | 858.26
x1 = 0.5998 | 866.75
x1 = 0.6583 | 872.76
x1 = 0.7174 | 879.14
x1 = 0.7844 | 886.51
x1 = 0.8341 | 892.31
x1 = 0.8964 | 899.75
x1 = 0.9538 | 907.13
x1 = 0.9784 | 910.69

CN1CCOCC1 [N-methylmorpholine] + CCO
[2]
Conditions | mass density [kg/m3]
x1 = 0.0511 | 797.55
x1 = 0.1166 | 812.41
x1 = 0.1795 | 825.38
x1 = 0.2438 | 837.23
x1 = 0.2795 | 843.43
x1 = 0.3532 | 854.69
x1 = 0.4021 | 861.24
x1 = 0.4573 | 867.56
x1 = 0.4982 | 871.73
x1 = 0.5342 | 875.35
x1 = 0.5832 | 879.41
x1 = 0.6432 | 884.36
x1 = 0.7234 | 890.96
x1 = 0.7786 | 895.53
x1 = 0.8216 | 899.13
x1 = 0.8794 | 904.05
x1 = 0.9432 | 909.42
x1 = 0.9832 | 912.63
